Assay results: patent US20110144079A1, “ANTIMICROBIAL SYSTEM” (priority 2008, published 2011)

Key:
Format in all cases: cell-based
S. aureus ATCC 29213 = assay: Broth microdilution MIC/MBC; details: for MBC: S. aureus ATCC 29213, 99.9% killing; for MIC: S. aureus ATCC 29213, 24 h at 37° C.
Protocol: (§1) Broth microdilution tests were performed according to NCCLS guidelines. Serial two-fold dilutions of each imidazolium salt (from an original working solution which had been 0.22 μm sterile filtered) in Mueller-Hinton Broth (MHB) (100 μl) were prepared in 96-well micro-titre plates over the range 0.0000625-1% w/v. The inoculum to be tested was prepared by adjusting the turbidity of an actively overnight growing broth culture in MHB to an optical density at 550 nm equivalent to 1×10^8 CFU/ml. The suspension was further diluted to provide a final inoculum density of 2×10^5 CFU/ml in MHB as verified by total viable count. The inoculum to be tested (100 μl, 2×10^5 CFU ml^−1) was added to each well of the microdilution trays which were incubated aerobically for 24 h at 37° C. Positive and negative growth controls were included in every assay (6 replicates). After determining the MICs, minimum bactericidal concentrations (MBCs) were determined by spreading 20 μl of suspension from wells showing no growth onto MHA plates, which were then incubated for 24 h and examined for 99.9% killing.

B. cereus [1] = assay: Broth microdilution MIC/MBC; details: for MBC: 99.9% killing; for MIC: 24 h at 37° C.
Protocol: as §1

E. coli NCTC 8196 [2] = assay: Broth microdilution MIC/MBC; details: for MBC: E. coli NCTC 8196, 99.9% killing; for MIC: E. coli NCTC 8196, 24 h at 37° C.
Protocol: as §1

K. aerogenes NCTC 7427 [3] = assay: Broth microdilution MIC/MBC; details: for MBC: K. aerogenes NCTC 7427, 99.9% killing; for MIC: K. aerogenes NCTC 7427, 24 h at 37° C.
Protocol: as §1

P. aeruginosa PA01 [4] = assay: Broth microdilution MIC/MBC; details: for MBC: P. aeruginosa PA01, 99.9% killing; for MIC: P. aeruginosa PA01, 24 h at 37° C., read-out: MIC
Protocol: as §1

E-MRSA 15 [5] = assay: Broth microdilution MIC/MBC; details: for MBC: E-MRSA 15, 99.9% killing; for MIC: E-MRSA 15, 24 h at 37° C.
Protocol: as §1

[6] = tested on: S. epidermidis ATCC 12228; assay: Broth microdilution MIC/MBC; details: for MBC: S. epidermidis ATCC 12228, 99.9% killing; for MIC: S. epidermidis ATCC 12228, 24 h at 37° C.
Protocol: as §1

C. tropicalis NCTC 7393 [7] = assay: Broth microdilution MIC/MBC; details: for MBC: C. tropicalis NCTC 7393, 99.9% killing; for MIC: C. tropicalis NCTC 7393, 24 h at 37° C.
Protocol: as §1

P. mirabilis NCTC 12442 [8] = assay: Broth microdilution MIC/MBC; details: for MBC: P. mirabilis NCTC 12442, 99.9% killing; for MIC: P. mirabilis NCTC 12442, 24 h at 37° C.
Protocol: as §1

[9] = tested on: S. epidermidis ATCC 35984; assay: Broth microdilution MIC/MBC; details: for MBC: S. epidermidis ATCC 35984, 99.9% killing; for MIC: S. epidermidis ATCC 35984, 24 h at 37° C.
Protocol: as §1

S. aureus PIII [10] = assay: Broth microdilution MIC
Protocol: as §1

S. aureus PIII [11] = assay: Biofilm assay (Calgary Biofilm Device), MBEC; details: S. aureus PIII 24 h biofilm, 24 h challenge
Protocol: (§2) Biofilms of each test organism were grown in the Calgary Biofilm Device (commercially available as the MBEC Assay™ for Physiology & Genetics, Innovotech Inc., Edmonton, Alberta, Canada). The device, a micro-titre plated based assay, consists of two parts; a microtitre plate containing the inoculated test medium and a polystyrene lid with 96 identical pegs on which the microbial biofilm forms under gyrorotary incubation. The biofilm assay was conducted according to the MBEC™ assay protocol as supplied by the manufacturer, with slight modifications. Inocula of each test organism were prepared in MHB as described above and adjusted to provide a final inoculum density of ˜10^7 CFU ml^−1 (as confirmed by viable count). 150 μl of the inoculated media was transferred to each well of the 96-well microtitre plate and the assay plate lid, bearing 96 pegs was placed into the microtitre plate. The MBEC assay plates were placed in a gyrorotary incubator (37° C., 95% relative humidity) for 24 h to permit growth and comparison of 24 h biofilms of each test strain. Positive and negative growth controls were included in each plate (6 replicates). Initial and 24 h planktonic viable counts were measured, as were 24 h biofilm counts, expressed as CFU peg^−1, according to manufacturers instructions. After 24 h, the peg lid of the MBEC assay plate was gently rinsed three times. After rinsing, the peg lid of the MBEC assay was transferred to a ‘challenge’ plate. Serial dilutions of each imidazolium salt were prepared in 200 μl of MHB containing various concentrations of IL in each well. Positive growth control and sterility control were included in each assay plate. […] Biofilms were dislodged into recovery media by sonication for 5 minutes and the peg lid discarded. The recovery plate is incubated overnight and visually checked after 24 h for turbidity. In addition, optical density measurements for each plate were recorded at 550 nm. Clear wells were taken as evidence of biofilm eradication and the MBEC value was assigned as the lowest concentration at which no growth was observed after 24 h incubation. Plates were incubated for a further 24 h to confirm biofilm eradication concentrations.

B. cereus [12] = assay: Biofilm assay (Calgary Biofilm Device), MBEC; details: B. cereus 24 h biofilm, 24 h challenge
Protocol: as §2

E. coli NCTC 8196 [13] = assay: Biofilm assay (Calgary Biofilm Device), MBEC; details: E. coli NCTC 8196 24 h biofilm, 24 h challenge
Protocol: as §2

K. aerogenes NCTC 7427 [14] = assay: Biofilm assay (Calgary Biofilm Device), MBEC; details: K. aerogenes NCTC 7427 24 h biofilm, 24 h challenge
Protocol: as §2

P. aeruginosa PA01 [15] = assay: Biofilm assay (Calgary Biofilm Device), MBEC; details: P. aeruginosa PA01 24 h biofilm, 24 h challenge
Protocol: as §2

E-MRSA 15 [16] = assay: Biofilm assay (Calgary Biofilm Device), MBEC; details: E-MRSA 15 24 h biofilm, 24 h challenge
Protocol: as §2

C. tropicalis NCTC 7393 [17] = assay: Biofilm assay (Calgary Biofilm Device), MBEC; details: C. tropicalis NCTC 7393 24 h biofilm, 24 h challenge
Protocol: as §2

P. mirabilis NCTC 12442 [18] = assay: Biofilm assay (Calgary Biofilm Device), MBEC; details: P. mirabilis NCTC 12442 24 h biofilm, 24 h challenge
Protocol: as §2

[19] = tested on: S. epidermidis ATCC 35984; assay: Biofilm assay (Calgary Biofilm Device), MBEC; details: S. epidermidis ATCC 35984 24 h biofilm, 24 h challenge
Protocol: as §2

SMILES | MIC (S. aureus ATCC 29213) | MIC (B. cereus [1]) | MIC (E. coli NCTC 8196 [2]) | MIC (K. aerogenes NCTC 7427 [3]) | MIC (P. aeruginosa PA01 [4]) | MIC (E-MRSA 15 [5]) | MIC (C. tropicalis NCTC 7393 [7]) | MIC (P. mirabilis NCTC 12442 [8]) | MIC [9] | MIC (S. aureus PIII [10]) | MBC (S. aureus ATCC 29213) | MBEC (S. aureus PIII [11]) | MBEC (B. cereus [12]) | MBEC (E. coli NCTC 8196 [13]) | MBEC (K. aerogenes NCTC 7427 [14]) | MBEC (P. aeruginosa PA01 [15]) | MBEC (E-MRSA 15 [16]) | MBEC (C. tropicalis NCTC 7393 [17]) | MBEC (P. mirabilis NCTC 12442 [18]) | MBEC [19] | other results
CCCCCCCC[n+]1cccc2ccccc21.[Br-] [1-alkyl-3-quinolinium bromides 8] | 242 µM | 484.78 µM | 121.2 µM | 60 µM | 484.78 µM | 242 µM | 242 µM | 242 µM | 121.2 µM | 242 µM | 484 µM | 7826 µM | 7826 µM | 8315 µM | 9782 µM | 8315 µM | 7826 µM | 7826 µM | 7826 µM | 3913 µM | MBC (B. cereus [1]): 726 µM; MBC (E. coli NCTC 8196 [2]): 242 µM; MBC (K. aerogenes NCTC 7427 [3]): 242 µM; MBC (P. aeruginosa PA01 [4]): 605 µM; MBC (E-MRSA 15 [5]): 484 µM; MBC [6]: 242 µM; MIC [6]: 121.2 µM; MBC (C. tropicalis NCTC 7393 [7]): 363 µM; MBC (P. mirabilis NCTC 12442 [8]): 363 µM; MBC [9]: 242 µM
CCCCCCCCCC[n+]1cccc2ccccc21.[Br-] [1-alkyl-3-quinolinium bromides 10] | 111.5 µM | 223 µM | 55.74 µM | 55.74 µM | 223 µM | 55.74 µM | 55.74 µM | 111.5 µM | 55.74 µM | 111.5 µM | 111.48 µM | 1956 µM | 3584 µM | 3584 µM | 4568 µM | 1792 µM | 1792 µM | 1792 µM | 3584 µM | 896 µM | MBC (B. cereus [1]): 278.7 µM; MBC (E. coli NCTC 8196 [2]): 167.22 µM; MBC (K. aerogenes NCTC 7427 [3]): 167.22 µM; MBC (P. aeruginosa PA01 [4]): 446 µM; MBC (E-MRSA 15 [5]): 111.48 µM; MBC [6]: 111.48 µM; MIC [6]: 55.74 µM; MBC (C. tropicalis NCTC 7393 [7]): 111.48 µM; MBC (P. mirabilis NCTC 12442 [8]): 167.22 µM; MBC [9]: 111.48 µM

More lines, main results first:

MIC (S. aureus ATCC 29213) | MIC (B. cereus [1]) | MIC (E. coli NCTC 8196 [2]) | MIC (K. aerogenes NCTC 7427 [3]) | MIC (P. aeruginosa PA01 [4]) | MIC (E-MRSA 15 [5]) | MIC (C. tropicalis NCTC 7393 [7]) | MIC (P. mirabilis NCTC 12442 [8]) | MIC [9] | MIC (S. aureus PIII [10]) | SMILES | MBC (S. aureus ATCC 29213) | MBEC (S. aureus PIII [11]) | MBEC (B. cereus [12]) | MBEC (E. coli NCTC 8196 [13]) | MBEC (K. aerogenes NCTC 7427 [14]) | MBEC (P. aeruginosa PA01 [15]) | MBEC (E-MRSA 15 [16]) | MBEC (C. tropicalis NCTC 7393 [17]) | MBEC (P. mirabilis NCTC 12442 [18]) | MBEC [19] | other results
25.81 µM | 51.63 µM | 25.81 µM | 12.9 µM | 51.64 µM | 25.8 µM | 12.9 µM | 25.81 µM | 12.9 µM | 25.81 µM | CCCCCCCCCCCC[n+]1cccc2ccccc21.[Br-] [1-alkyl-3-quinolinium bromides 12] | 51.6 µM | 619.5 µM | 774.25 µM | 827.94 µM | 981.25 µM | 413.97 µM | 827.94 µM | 413.87 µM | 1655.88 µM | 413.97 µM | MBC (B. cereus [1]): 77.4 µM; MBC (E. coli NCTC 8196 [2]): 38.7 µM; MBC (K. aerogenes NCTC 7427 [3]): 38.7 µM; MBC (P. aeruginosa PA01 [4]): 90.33 µM; MBC (E-MRSA 15 [5]): 25.8 µM; MBC [6]: 25.8 µM; MIC [6]: 12.9 µM; MBC (C. tropicalis NCTC 7393 [7]): 25.8 µM; MBC (P. mirabilis NCTC 12442 [8]): 51.6 µM; MBC [9]: 25.8 µM
5.8 µM | 23.95 µM | 11.6 µM | 5.8 µM | 23.95 µM | 5.8 µM | 3 µM | 5.8 µM | 5.8 µM | 5.8 µM | CCCCCCCCCCCCCC[n+]1cccc2ccccc21.[Br-] [1-alkyl-3-quinolinium bromides 14] | 5.8 µM | 91.11 µM | 273.32 µM | 136.66 µM | 136.66 µM | 136.66 µM | 136.66 µM | 68.33 µM | 546.64 µM | 68.33 µM | MBC (B. cereus [1]): 29.75 µM; MBC (E. coli NCTC 8196 [2]): 11.6 µM; MBC (K. aerogenes NCTC 7427 [3]): 11.6 µM; MBC (P. aeruginosa PA01 [4]): 23.95 µM; MBC (E-MRSA 15 [5]): 5.8 µM; MBC [6]: 5.8 µM; MIC [6]: 3 µM; MBC (C. tropicalis NCTC 7393 [7]): 3 µM; MBC (P. mirabilis NCTC 12442 [8]): 5.8 µM; MBC [9]: 5.8 µM
– | 419.52 µM | 104.88 µM | 104.88 µM | 419.52 µM | 209.76 µM | 104.88 µM | 104.88 µM | 104.88 µM | 209.76 µM | CCCCCCCCCCCCCCCCCC[n+]1cccc2ccccc21.[Br-] [1-alkyl-3-quinolinium bromides 18] | – | 3356.16 µM | 3356.16 µM | 1678.08 µM | 6712.32 µM | 6712.32 µM | 1678.08 µM | 1678.08 µM | 3356.16 µM | 1678.08 µM | –
